Data as given in paper PMC11589570, “Critical assessment of LC3/GABARAP ligands used for degrader development and ligandability of LC3/GABARAP binding pockets” (Nature Communications, 2024).
Values joined by “and” are separate entries in the source; they are usually repeats but may differ in a detail not shown here. Equal values may be shown once.

How the values were obtained:
Assay in all cases: FP assay with Cy5-labelled p62 LIR tracer (protein titration and tracer displacement)
Details in all cases: replicates, listed as TH152
LC3C = LC3C (Homo sapiens, UniProt Q9BXW4); type: binding
GABARAPL2 = GABARAPL2 (Homo sapiens, UniProt P60520)
GABARAPL1 = GABARAPL1 (Homo sapiens, UniProt Q9H0R8); type: binding
GABARAP = GABARAP (Homo sapiens, UniProt O95166); type: binding
Sequence of GABARAP (O95166 1-116): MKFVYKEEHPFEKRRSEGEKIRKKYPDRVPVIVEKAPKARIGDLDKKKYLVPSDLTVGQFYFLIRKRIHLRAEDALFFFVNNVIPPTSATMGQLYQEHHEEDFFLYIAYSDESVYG

Sequence of LC3C (Q9BXW4 1-126): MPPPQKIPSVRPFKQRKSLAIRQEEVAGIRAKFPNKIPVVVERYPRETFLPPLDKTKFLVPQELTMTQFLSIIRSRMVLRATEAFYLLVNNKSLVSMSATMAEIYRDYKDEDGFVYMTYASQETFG
Sequence of GABARAPL1 (Q9H0R8 whole entry): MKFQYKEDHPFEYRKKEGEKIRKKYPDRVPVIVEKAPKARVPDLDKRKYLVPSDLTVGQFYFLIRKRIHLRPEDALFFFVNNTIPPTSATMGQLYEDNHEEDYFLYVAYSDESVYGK
Sequence of GABARAPL2 (P60520 whole entry): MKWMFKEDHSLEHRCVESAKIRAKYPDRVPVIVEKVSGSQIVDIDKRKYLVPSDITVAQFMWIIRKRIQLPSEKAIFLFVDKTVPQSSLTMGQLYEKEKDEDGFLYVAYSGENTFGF

With CCCCCCC(Sc1nc(Cl)cc(Nc2nc(-c3ccc(C(=O)O)cc3)cs2)n1)C(=O)O (centres unmarked) [compound 21] the “FP assay result (normalised FP signal)” value (LC3C; log10 concentration [M] -3.5) was 19.6537 and 17.9691 and 15.5358 and 11.7922, the “FP assay result (normalised FP signal)” value (LC3C; log10 concentration [M] -4) was 50.5381 and 45.8587 and 48.6664 and 46.0459 and the “FP assay result (normalised FP signal)” value (LC3C; log10 concentration [M] -4.5) was 71.5021 and 72.0636 and 76.3687 and 74.6841. The “FP assay result (normalised FP signal)” value (LC3C; log10 concentration [M] -5) was 93.0276 and 94.7122 and 94.8994 and 95.6481, the “FP assay result (normalised FP signal)” value (LC3C; log10 concentration [M] -5.5) was 93.7763 and 94.3379 and 97.5199 and 95.8353 and the “FP assay result (normalised FP signal)” value (LC3C; log10 concentration [M] -6) was 96.0225 and 101.076 and 101.638 and 98.4558. The “FP assay result (normalised FP signal)” value (LC3C; log10 concentration [M] -6.5) was 90.0328 and 92.0917 and 90.5943 and 93.2148, the “FP assay result (normalised FP signal)” value (LC3C; log10 concentration [M] -7) was 99.2045 and 96.9584 and 97.5199 and 97.8942 and the “FP assay result (normalised FP signal)” value (LC3C; log10 concentration [M] -7.5) was 99.9532 and 98.8301 and 99.3917 and 101.825. The “FP assay result (normalised FP signal)” value (LC3C; log10 concentration [M] -8) was 96.2096 and 99.0173 and 101.263 and 99.2045, the “FP assay result (normalised FP signal)” value (LC3C; log10 concentration [M] -8.5) was 94.3379 and 96.2096 and 95.0866 and 96.0225 and the “FP assay result (normalised FP signal)” value (GABARAPL2; log10 concentration [M] -3.5) was 15.4589 and 21.9002 and 32.8502 and 25.1208. The “FP assay result (normalised FP signal)” value (GABARAPL2; log10 concentration [M] -4) was 44.4444 and 43.8003 and 53.7842 and 57.0048, the “FP assay result (normalised FP signal)” value (GABARAPL2; log10 concentration [M] -4.5) was 73.752 and 73.1079 and 75.0403 and 77.2947 and the “FP assay result (normalised FP signal)” value (GABARAPL2; log10 concentration [M] -5) was 94.686 and 90.8213 and 95.0081 and 104.992. For the same compound, the “FP assay result (normalised FP signal)” value (GABARAPL2; log10 concentration [M] -5.5) was 97.2625 and 94.0419 and 105.958 and 102.093, the “FP assay result (normalised FP signal)” value (GABARAPL2; log10 concentration [M] -6) was 96.2963 and 93.0757 and 104.026 and 99.5169 and the “FP assay result (normalised FP signal)” value (GABARAPL2; log10 concentration [M] -6.5) was 86.9565 and 89.8551 and 99.1948 and 93.0757. The “FP assay result (normalised FP signal)” value (GABARAPL2; log10 concentration [M] -7) was 90.4992 and 100.483 and 104.992 and 96.9404, the “FP assay result (normalised FP signal)” value (GABARAPL2; log10 concentration [M] -7.5) was 99.839 and 95.9742 and 100.161 and 104.026 and the “FP assay result (normalised FP signal)” value (GABARAPL2; log10 concentration [M] -8) was 94.686 and 94.3639 and 101.127 and 98.5507. The “FP assay result (normalised FP signal)” value (GABARAPL2; log10 concentration [M] -8.5) was 91.4654 and 99.5169 and 96.2963 and 101.127, the “FP assay result (normalised FP signal)” value (GABARAPL1; log10 concentration [M] -3.5) was 12.2578 and 12.5396 and 10.1444 and 7.186 and the “FP assay result (normalised FP signal)” value (GABARAPL1; log10 concentration [M] -4) was 30.4333 and 31.4195 and 29.5879 and 26.0655. For the same compound, the “FP assay result (normalised FP signal)” value (GABARAPL1; log10 concentration [M] -4.5) was 65.2342 and 56.9215 and 57.9077 and 55.9352, the “FP assay result (normalised FP signal)” value (GABARAPL1; log10 concentration [M] -5) was 92.9905 and 91.2998 and 95.2448 and 93.4132 and the “FP assay result (normalised FP signal)” value (GABARAPL1; log10 concentration [M] -5.5) was 96.2311 and 98.3445 and 98.9081 and 98.7672. The “FP assay result (normalised FP signal)” value (GABARAPL1; log10 concentration [M] -6) was 98.6263 and 98.7672 (2×) and 99.1899, the “FP assay result (normalised FP signal)” value (GABARAPL1; log10 concentration [M] -6.5) was 96.2311 and 93.5541 and 95.6675 and 93.2723 and the “FP assay result (normalised FP signal)” value (GABARAPL1; log10 concentration [M] -7) was 99.049 and 98.3445 and 97.64 and 97.4991. The “FP assay result (normalised FP signal)” value (GABARAPL1; log10 concentration [M] -7.5) was 101.021 and 101.867 and 99.049 and 98.0627, the “FP assay result (normalised FP signal)” value (GABARAPL1; log10 concentration [M] -8) was 97.0764 and 96.0902 (2×) and 101.162 and the “FP assay result (normalised FP signal)” value (GABARAPL1; log10 concentration [M] -8.5) was 95.6675 and 98.9081 and 96.9355 and 97.3582. The “FP assay result (normalised FP signal)” value (GABARAP; log10 concentration [M] -3.5) was 6.476 and 7.14 and 8.634 and 10.7929, the “FP assay result (normalised FP signal)” value (GABARAP; log10 concentration [M] -4) was 22.9141 and 19.9253 and 28.8917 and 24.7406 and the “FP assay result (normalised FP signal)” value (GABARAP; log10 concentration [M] -4.5) was 50.1453 and 47.6546 and 52.4699 and 48.8169. The “FP assay result (normalised FP signal)” value (GABARAP; log10 concentration [M] -5) was 88.9996 and 85.5127 and 92.3205 and 91.9884, the “FP assay result (normalised FP signal)” value (GABARAP; log10 concentration [M] -5.5) was 94.6451 and 91.9884 and 100.623 and 97.7999 and the “FP assay result (normalised FP signal)” value (GABARAP; log10 concentration [M] -6) was 98.298 and 99.6264 and 101.287 and 99.7924. For the same compound, the “FP assay result (normalised FP signal)” value (GABARAP; log10 concentration [M] -6.5) was 94.479 and 92.8186 and 96.6376 and 97.7999, the “FP assay result (normalised FP signal)” value (GABARAP; log10 concentration [M] -7) was 96.3055 and 97.7999 and 100.955 and 96.9697 and the “FP assay result (normalised FP signal)” value (GABARAP; log10 concentration [M] -7.5) was 97.3018 (2×) and 101.453 and 101.785. For the same compound, the “FP assay result (normalised FP signal)” value (GABARAP; log10 concentration [M] -8) was 99.9585 and 97.966 and 101.619 and 100.457 and the “FP assay result (normalised FP signal)” value (GABARAP; log10 concentration [M] -8.5) was 96.1395 and 97.7999 and 97.966 and 99.2943.
